Measured values published in patent US20140323504A1, “Pyrazolo[4,3-c]Pyridine Derivatives As Kinase Inhibitors” (Cellzome Limited, priority 2011, published 2014).
pIC50: −log10 of the molar value.

Key:
JAK1 = target: T1, JAK1 (Homo sapiens, UniProt P23458); test: Kinobeads assay with antibody detection, JAK1; type: binding; conditions: mixed Molt4/Ramos lysate, read-out: JAK1 inhibition value (IC50)
T1 construct: endogenous in cells; host or cells: mixed Molt4/Ramos cell lysate (1:2)
Method: (§1) The compounds of the present invention as described in the previous examples were tested in a Kinobeads™ assay as described for ZAP-70 (WO-A 2007/137867). Briefly, test compounds (at various concentrations) and the affinity matrix with the immobilized aminopyrido-pyrimidine ligand 24 were added to cell lysate aliquots and allowed to bind to the proteins in the lysate sample. After the incubation time the beads with captured proteins were separated from the lysate. Bound proteins were then eluted and the presence of JAK1; JAK2, JAK3 and TYK2 was detected and quantified using specific antibodies in a dot blot procedure and the Odyssey infrared detection system. Dose response curves for individual kinases were generated and IC50 values calculated. Kinobeads™ assays for ZAP-70 (WO-A 2007/137867) and for kinase selectivity profiling (WO-A 2006/134056) have been previously described.
(§2) 5×DP buffer: 250 mM Tris-HCl pH 7.4, 25% Glycerol, 7.5 mM MgCl2, 750 mM NaCl, 5 mM Na3VO4; filter the 5×DP buffer through a 0.22 μm filter and store in aliquot at −80° C. The 5×DP buffer is diluted with H2O to 1×DP buffer containing 1 mM DTT and 25 mM NaF.
(§3) Stock solutions of test compounds were prepared in DMSO. In a 96 well plate 30 μL solution of diluted test compounds at 5 mM in DMSO were prepared. Starting with this solution a 1:3 dilution series (9 steps) was prepared. For control experiments (no test compound) a buffer containing 2% DMSO was used.
(§4) Molt4 cells (ATCC catalogue number CRL-1582) and Ramos cells (ATCC catalogue number CRL-1596) were grown in 1 L Spinner flasks (Integra Biosciences, #182101) in suspension in RPMI 1640 medium (Invitrogen, #21875-034) supplemented with 10% Fetal Bovine Serum (Invitrogen) at a density between 0.15×10^6 and 1.2×10^6 cells/mL. Cells were harvested by centrifugation, washed once with 1×PBS buffer (Invitrogen, #14190-094) and cell pellets were frozen in liquid nitrogen and subsequently stored at −80° C. Cells were homogenized in a Potter S homogenizer in lysis buffer: 50 mM Tris-HCl, 0.8% NP40, 5% glycerol, 150 mM NaCl, 1.5 mM MgCl2, 25 mM NaF, 1 mM sodium vanadate, 1 mM DTT, pH 7.5. One complete EDTA-free tablet (protease inhibitor cocktail, Roche Diagnostics, 1873580) per 25 mL buffer was added. The material was dounced 10 times using a mechanized POTTER S, transferred to 50 mL falcon tubes, incubated for 30 minutes on ice and spun down for 10 minutes at 20,000 g at 4° C. (10,000 rpm in Sorvall SLA600, precooled). The supernatant was transferred to an ultracentrifuge (UZ)-polycarbonate tube (Beckmann, 355654) and spun for 1 hour at 100.000 g at 4° C. (33.500 rpm in Ti50.2, precooled). The supernatant was transferred again to a fresh 50 mL falcon tube, the protein concentration was determined by a Bradford assay (BioRad) and samples containing 50 mg of protein per aliquot were prepared. The samples were immediately used for experiments or frozen in liquid nitrogen and stored frozen at −80° C.
(§5) Cell lysate (approximately 50 mg protein per plate) was thawed in a water bath at room temperature and then stored on ice. To the thawed cell lysate 1×DP 0.8% NP40 buffer containing protease inhibitors (1 tablet for 25 mL buffer; EDTA-free protease inhibitor cocktail; Roche. Diagnostics 1873580) was added in order to reach a final protein concentration of 10 mg/mL total protein. The diluted cell lysate was stored on ice. Mixed Molt4Ramos lysate was prepared by combining one volume of Molt4 lysate and two volumes of Ramos lysate (ratio 1:2).
(§6) Plates were sealed and incubated for 3 hours in a cold room on a plate shaker (Heidolph tiramax 1000) at 750 rpm. Afterwards the plate was washed 3 times with 230 μL washing buffer (1×DP 0.4% NP40). The filter plate was placed on top of a collection plate (Greiner bio-one, PP-microplate 96 well V-shape, 65120) and the beads were then eluted with 20 μL of sample buffer (100 mM Tris, pH 7.4, 4% SDS, 0.00025% bromophenol blue, 20% glycerol, 50 mM DTT). […]

JAK2 = target: T2, JAK2 (Homo sapiens, UniProt O60674); test: Kinobeads assay with antibody detection, JAK2; type: binding; conditions: mixed Molt4/Ramos lysate, read-out: JAK2 inhibition value (IC50)
T2 construct: endogenous in cells; host or cells: mixed Molt4/Ramos cell lysate (1:2)
T2 sequence (O60674 whole entry): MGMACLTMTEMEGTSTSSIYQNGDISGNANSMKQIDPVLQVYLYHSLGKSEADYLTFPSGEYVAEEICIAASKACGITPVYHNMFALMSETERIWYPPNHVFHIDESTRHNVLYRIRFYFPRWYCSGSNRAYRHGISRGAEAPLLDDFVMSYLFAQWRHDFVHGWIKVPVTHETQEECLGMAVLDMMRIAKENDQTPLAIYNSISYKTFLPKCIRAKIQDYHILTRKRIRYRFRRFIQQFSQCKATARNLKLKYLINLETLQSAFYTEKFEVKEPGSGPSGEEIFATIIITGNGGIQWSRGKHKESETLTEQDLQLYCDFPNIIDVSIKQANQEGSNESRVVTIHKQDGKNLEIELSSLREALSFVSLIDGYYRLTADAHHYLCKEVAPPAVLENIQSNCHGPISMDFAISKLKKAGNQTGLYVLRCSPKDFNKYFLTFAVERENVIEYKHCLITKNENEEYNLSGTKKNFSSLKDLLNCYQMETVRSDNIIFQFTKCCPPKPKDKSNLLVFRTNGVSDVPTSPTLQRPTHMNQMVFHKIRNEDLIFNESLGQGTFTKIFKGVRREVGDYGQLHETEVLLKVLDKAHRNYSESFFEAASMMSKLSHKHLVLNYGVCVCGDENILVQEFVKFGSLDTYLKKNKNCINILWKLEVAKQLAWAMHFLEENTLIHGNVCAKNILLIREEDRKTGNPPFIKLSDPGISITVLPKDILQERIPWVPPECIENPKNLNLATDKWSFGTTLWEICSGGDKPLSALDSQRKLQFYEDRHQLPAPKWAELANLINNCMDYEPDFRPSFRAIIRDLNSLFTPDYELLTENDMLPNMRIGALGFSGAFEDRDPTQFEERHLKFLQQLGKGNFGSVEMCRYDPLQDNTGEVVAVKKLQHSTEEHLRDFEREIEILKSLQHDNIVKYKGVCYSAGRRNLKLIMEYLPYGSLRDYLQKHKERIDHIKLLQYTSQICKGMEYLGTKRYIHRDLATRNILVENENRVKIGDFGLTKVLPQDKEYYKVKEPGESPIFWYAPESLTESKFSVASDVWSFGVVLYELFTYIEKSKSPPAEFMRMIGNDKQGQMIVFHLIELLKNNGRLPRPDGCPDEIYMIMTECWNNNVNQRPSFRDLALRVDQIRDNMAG
Method: as §1, §2, §3, §4, §5, §6

T1 sequence (P23458 whole entry): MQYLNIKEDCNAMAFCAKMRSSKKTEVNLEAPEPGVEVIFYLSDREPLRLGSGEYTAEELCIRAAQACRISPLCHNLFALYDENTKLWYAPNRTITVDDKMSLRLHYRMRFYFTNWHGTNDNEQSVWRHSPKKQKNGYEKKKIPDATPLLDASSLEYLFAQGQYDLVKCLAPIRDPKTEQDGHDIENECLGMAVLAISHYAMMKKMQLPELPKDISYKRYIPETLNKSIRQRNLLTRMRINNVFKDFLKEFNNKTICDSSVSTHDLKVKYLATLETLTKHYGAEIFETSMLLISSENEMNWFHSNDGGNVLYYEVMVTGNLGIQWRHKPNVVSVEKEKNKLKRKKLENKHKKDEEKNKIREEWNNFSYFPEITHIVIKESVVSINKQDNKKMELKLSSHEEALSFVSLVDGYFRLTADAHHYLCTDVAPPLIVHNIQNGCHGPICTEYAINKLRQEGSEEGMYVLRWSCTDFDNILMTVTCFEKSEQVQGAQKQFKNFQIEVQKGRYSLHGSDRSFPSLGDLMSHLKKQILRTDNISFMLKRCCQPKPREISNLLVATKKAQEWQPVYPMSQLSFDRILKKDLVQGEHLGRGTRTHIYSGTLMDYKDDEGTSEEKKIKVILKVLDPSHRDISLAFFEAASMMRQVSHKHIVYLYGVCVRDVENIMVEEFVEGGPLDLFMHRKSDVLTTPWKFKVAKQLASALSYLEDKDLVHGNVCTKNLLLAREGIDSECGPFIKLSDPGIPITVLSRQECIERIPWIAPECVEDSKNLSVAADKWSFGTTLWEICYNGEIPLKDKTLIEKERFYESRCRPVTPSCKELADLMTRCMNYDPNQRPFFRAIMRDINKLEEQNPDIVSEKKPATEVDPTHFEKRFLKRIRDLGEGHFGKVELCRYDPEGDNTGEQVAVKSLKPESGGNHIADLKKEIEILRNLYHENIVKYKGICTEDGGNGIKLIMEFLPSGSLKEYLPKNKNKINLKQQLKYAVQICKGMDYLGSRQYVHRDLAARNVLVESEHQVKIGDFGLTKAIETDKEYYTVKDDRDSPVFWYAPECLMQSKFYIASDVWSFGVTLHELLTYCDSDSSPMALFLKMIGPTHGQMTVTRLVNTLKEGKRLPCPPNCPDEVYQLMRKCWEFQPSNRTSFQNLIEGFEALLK

pIC50 (JAK1) | pIC50 (JAK2) | Structure (SMILES)
< 5.00 | < 5.00 | C=C(C)C(=O)Nc1cccc(Cn2ncc3cnc(Nc4cnn(C)c4)nc32)c1 [Example 5, N-(3-((6-((1-Methyl-1H-pyrazol-4-yl)amino)-1H-pyrazolo[3,4-d]pyrimidin-1-yl)methyl)phenyl)methacrylamide]
< 5.00 | < 5.00 | C=CC(=O)Nc1cc(Cn2ncc3cnc(Nc4cnn(C)c4)nc32)ccc1F [Example 2, […]]
< 5.00 | < 5.00 | C=CC(=O)Nc1cccc(Cn2ncc3cnc(Nc4cnn(C)c4)nc32)c1 [Example 1, N-(3-((6-((1-Methyl-1H-pyrazol-4-yl)amino)-1H-pyrazolo[3,4-d]pyrimidin-1-yl)methyl)phenyl)acrylamide]
5.11 | < 5.00 | C=CS(=O)(=O)Nc1cccc(Cn2ccc3cnc(Nc4cnn(C)c4)nc32)c1 [Example 7, N-(3-((2-((1-Methyl-1H-pyrazol-4-yl)amino)-7H-pyrrolo[2,3-d]pyrimidin-7-yl)methyl)phenyl)ethenesulfonamide]
< 5.00 | < 5.00 | C=CS(=O)(=O)Nc1cccc(Cn2ncc3cnc(Nc4cnn(C)c4)nc32)c1 [Example 4, N-(3-((6-((1-Methyl-1H-pyrazol-4-yl)amino)-1H-pyrazolo[3,4-d]pyrimidin-1-yl)methyl)phenyl)ethenesulfonamide]
< 5.00 | < 5.00 | CC(=O)Nc1cccc(Cn2ncc3cnc(Nc4cnn(C)c4)nc32)c1 [compound 2, N-(3-((6-((1-methyl-1H-pyrazol-4-yl)amino)-1H-pyrazolo[3,4-d]pyrimidin-1-yl)methyl)phenyl)acetamide, reference compound]
< 5.00 | < 5.00 | C#CC(=O)Nc1cccc(Cn2ncc3cnc(Nc4cnn(C)c4)nc32)c1 [Example 3, N-(3-((6-((1-Methyl-1H-pyrazol-4-yl)amino)-1H-pyrazolo[3,4-d]pyrimidin-1-yl)methyl)phenyl)propiolamide]
